The text below walks through data of patent US20140023611A1 (priority 2010, published 2014).

Assay [1] addresses T1, rat NaP2b (SLC34A2) (Rattus norvegicus, UniProt Q9JJ09).
T1 construct: host or cells: HEK293
T1 sequence (Q9JJ09 1-695): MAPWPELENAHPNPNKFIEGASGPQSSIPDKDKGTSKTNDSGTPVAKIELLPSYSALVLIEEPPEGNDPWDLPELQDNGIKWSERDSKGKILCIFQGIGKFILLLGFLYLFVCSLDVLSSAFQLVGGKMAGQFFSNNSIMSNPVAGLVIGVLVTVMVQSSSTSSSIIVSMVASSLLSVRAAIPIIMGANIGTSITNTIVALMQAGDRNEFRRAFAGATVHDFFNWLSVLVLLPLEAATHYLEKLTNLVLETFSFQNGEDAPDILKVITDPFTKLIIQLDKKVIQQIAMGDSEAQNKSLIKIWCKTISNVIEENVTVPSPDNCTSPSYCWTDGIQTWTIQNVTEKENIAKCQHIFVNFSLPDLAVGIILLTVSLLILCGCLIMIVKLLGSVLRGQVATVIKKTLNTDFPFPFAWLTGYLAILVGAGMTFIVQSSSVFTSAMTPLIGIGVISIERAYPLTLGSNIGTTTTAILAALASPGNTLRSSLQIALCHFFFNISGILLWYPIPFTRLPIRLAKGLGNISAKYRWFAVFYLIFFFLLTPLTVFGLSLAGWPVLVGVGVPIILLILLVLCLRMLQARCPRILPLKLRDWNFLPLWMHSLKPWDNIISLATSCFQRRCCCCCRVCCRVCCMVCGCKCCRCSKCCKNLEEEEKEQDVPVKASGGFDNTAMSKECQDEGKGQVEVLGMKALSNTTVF
The experiment in a line: Inhibition of NaP2b-mediated Pi (33P) uptake in transfected HEK293 cells, rat NaP2b. The format is cell-based. The conditions noted are these: 33P Pi uptake, 0.1 mM phosphate, value given as pIC50 range. In short, it runs like this:
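HEK293 cells were transiently transfected with NaP2b cDNA using Lipofectamine and grown near confluence. Compounds were tested at twelve concentrations from 0.1 nM to 30 uM in duplicate, and 33P-phosphate uptake was counted by scintillation after lysis. Results are expressed as pIC50.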

The target in assay [2] is T2, human NaP2b (SLC34A2) (Homo sapiens, UniProt O95436).
T2 construct: host or cells: HEK293
T2 sequence (O95436 1-690): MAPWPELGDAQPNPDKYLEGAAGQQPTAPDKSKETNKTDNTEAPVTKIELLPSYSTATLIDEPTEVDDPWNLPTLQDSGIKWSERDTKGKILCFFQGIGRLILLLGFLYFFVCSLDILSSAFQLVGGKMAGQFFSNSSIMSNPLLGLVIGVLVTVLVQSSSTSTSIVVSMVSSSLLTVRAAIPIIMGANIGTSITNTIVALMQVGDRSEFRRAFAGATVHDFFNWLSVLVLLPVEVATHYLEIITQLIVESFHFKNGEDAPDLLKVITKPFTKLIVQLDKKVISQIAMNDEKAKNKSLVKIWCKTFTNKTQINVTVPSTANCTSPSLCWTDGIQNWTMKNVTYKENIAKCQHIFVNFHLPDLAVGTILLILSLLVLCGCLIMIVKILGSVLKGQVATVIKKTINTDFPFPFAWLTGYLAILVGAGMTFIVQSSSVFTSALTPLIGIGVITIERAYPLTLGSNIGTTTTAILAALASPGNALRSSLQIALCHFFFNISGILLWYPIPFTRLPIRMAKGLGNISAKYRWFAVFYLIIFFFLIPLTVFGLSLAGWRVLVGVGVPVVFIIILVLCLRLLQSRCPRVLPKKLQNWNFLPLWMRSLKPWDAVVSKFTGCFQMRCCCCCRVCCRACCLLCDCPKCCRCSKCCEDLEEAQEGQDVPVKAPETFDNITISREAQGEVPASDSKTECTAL
The experiment in a line: Inhibition of NaP2b-mediated Pi (33P) uptake in transfected HEK293 cells, human NaP2b. The conditions noted are these: for IC50: read-out: pIC50 range for human NaP2b (converted). The format is cell-based. The method, then: HEK293 cells were obtained from the American Type Culture collection and propagated per their instructions. Expression clones for rat and human NaP2b (SLC34A2) were obtained from Open Biosystems (Catalog numbers MRN1768-9510282, and MHS1010-99823026, respectively). The sequence of the human protein was mutated to insert a threonine after residue 37, and to introduce a N39D mutation.
The rate of phosphate (Pi) uptake into HEK293 cells was measured using a modification of the method described by Mohrmann et al. (Mohrmann, I., Mohrmann, M., Biber, J., and Murer, H. (1986) Am. J. Phys. 250(3 Pt 1):G323-30.) Transfected HEK293 cells were treated with a pharmacological agent to minimize endogenous PiT-mediated phosphate transport activity, such that the only remaining sodium-dependent phosphate transport activity is that which was bestowed by introduction of the NaP2b genes.
Cells were seeded into 96-well plates at 25,000 cells/well and cultured overnight. Lipofectamine 2000 (Invitrogen) was used to introduce the NaP2b cDNA, and the cells were allowed to approach confluence during a second overnight incubation. […] Cells were then overlayed with either choline uptake buffer or sodium uptake buffer (14 mM Tris, 137 mM sodium chloride, 5.4 mM KCl, 2.8 mM CaCl2, 1.2 mM MgSO4, 100 uM KH2PO4, PiT-silencing agent, 1 mg/mL Bovine Serum Albumin, pH 7.4) containing 6-9 uCi/mL ^33P orthophosphoric acid (Perkin Elmer) and test compound. Each compound was tested at twelve concentrations ranging from 0.1 nM to 30 uM. Assays were run in duplicate.
After incubation for 3-30 minutes at room temperature, assay mixtures were removed, and the cells were washed twice with ice cold stop solution (137 mM sodium chloride, 14 mM Tris, pH 7.4). Cells were lysed by addition of 20 μL 0.1% Tween 80 followed by 100 μL scintillation fluid, and counted using a TopCount (Perkin Elmer).
pIC50 (the negative log of the IC50) values of the test compounds were calculated using GraphPad Prism.

For the molecule “16-(3-(4-(16-(3-(4-(diethylamino)-2-(4-(3-(trifluoromethyl)benzylcarbamoyl)pyridin-2-yl)phenylcarbamoyl)phenyl)-4,7,10,13-tetraoxahexadecane)piperazine-1-carbonyl)phenyl)-4,7,10,13-tetraoxahexadecan-1-oic acid [Example 293]”, in assay [1], the “pIC50 range for rat Nap2b” value is reported as 5.1-6.0. For the same molecule, the “pIC50 range for human NaP2b” value in assay [2] (33P Pi uptake, transfected HEK293 cells, 0.1 mM phosphate, value given as pIC50 range) is recorded as 5.1-6.0.
As for `CN(CCO)C(=O)c1cccc(C(=O)Nc2ccc(N3CCCCC3)cc2-c2cc(C(=O)NC3CCCc4ccccc43)ccn2)c1` (stereo in doubt) [Example 115, (S)—N^1-(2-hydroxyethyl)-N′-methyl-N^3-(4-(piperidin]-yl)-2-(4-((1,2,3,4-tetrahydronaphthalen-1-yl)carbamoyl)pyridin-2-yl)phenyl)isophthalamide], the IC50 in assay [1] and in assay [2] was < 1 µM in each case.
In the case of `O=C(O)CCSCc1cccc(C(=O)Nc2ccc(N3CCCCC3)cc2-c2cc(NCc3cccc(C(F)(F)F)c3)ncn2)c1` [Example 3.1, 3-((3-((4-(Piperidin-1-yl)-2-(6-((3-(trifluoromethyl)benzyl)amino)pyrimidin-4-yl)phenyl)carbamoyl)benzyl)thio)propanoic acid], the IC50 in assay [1] and in assay [2] was 1 to 7.94 µM each time.
With `COc1ccc(CNc2cc(-c3cc(N4CCCCC4)ccc3NC(=O)c3cccc(CSCCC(=O)O)c3)ncn2)cc1OC` [Example 3.6, 3-((3-((2-(6-((3,4-Dimethoxybenzyl)amino)pyrimidin-4-yl)-4-(piperidin-1-yl)phenyl)carbamoyl)benzyl)thio)propanoic acid], the IC50 in assay [1] and in assay [2] was 10 to 31.6 µM in each case.
As to `O=C(O)CCSCc1cccc(C(=O)Nc2ccc(N3CCCCC3)cc2-c2cc(NCc3ccccc3)ncn2)c1` [Example 3.7, 3-((3-((2-(6-(Benzylamino)pyrimidin-4-yl)-4-(piperidin-1-yl)phenyl)carbamoyl)benzyl)thio)propanoic acid], the IC50 in assay [1] and in assay [2] was 10 to 31.6 µM each time.
On to `O=C(O)CCSCc1cccc(C(=O)Nc2ccc(N3CCCCC3)cc2-c2cc(Nc3cccc(C(F)(F)F)c3)ncn2)c1` [Example 3.10, 3-((3-((4-(Piperidin-1-yl)-2-(6-((3-(trifluoromethyl)phenyl)amino)pyrimidin-4-yl)phenyl)carbamoyl)benzyl)thio)propanoic acid], for which the IC50 is 1 to 7.94 µM in assay [1] and 10 to 31.6 µM in assay [2].
As to `O=C(CCSCc1cccc(C(=O)Nc2ccc(N3CCCCC3)cc2-c2cc(C(=O)NCc3cccc(C(F)(F)F)c3)ccn2)c1)NCCOCCOCCOCCOCCOCCOCCOCCO` [Example 4.19, 2-(2-(3-(29-Hydroxy-5-oxo-9,12,15,18,21,24,27-heptaoxa-2-thia-6-azanonacosyl)benzamido)-5-(piperidin-1-yl)phenyl)-N-(3-(trifluoromethyl)benzyl)isonicotinamide], the IC50 in assay [1] and in assay [2] was 1 to 7.94 µM each time.
Consider `CN(Cc1cncn1C)C(=O)c1cccc(C(=O)Nc2ccc(N3CCCCC3)cc2-c2cc(C(=O)NCc3cccc(C(F)(F)F)c3)ccn2)c1` [Example 4.26], for which the IC50 was 1 to 7.94 µM in assay [1] and < 1 µM in assay [2].
`O=C(O)CCOCCOCCOCCNC(=O)c1cccc2c1ccn2Cc1cccc(C(=O)Nc2ccc(N3CCCCC3)cc2-c2cc(C(=O)NCc3cccc(C(F)(F)F)c3)ccn2)c1` [Example 9.2, 1-Oxo-1-(1-(3-((4-(piperidin-1-yl)-2-(4-((3-(trifluoromethyl)benzyl)carbamoyl)pyridin-2-yl)phenyl)carbamoyl)benzyl)-1H-indol-4-yl)-5,8,11-trioxa-2-azatetradecan-14-oic acid]: the IC50 in assay [1] is 1 to 7.94 µM; in assay [2], < 1 µM.
The matching figures for `CN(CCN1CCOCC1)C(=O)c1cccc(C(=O)Nc2ccc(N3CCCCC3)cc2-c2cc(C(=O)N[C@@H]3CCCc4ccccc43)ccn2)c1` [Example 97]: 1 to 7.94 µM and 1 to 7.94 µM.
On to `CN(CCN1CCOCC1)C(=O)c1cccc(C(=O)Nc2ccc(N3CCCCC3)cc2-c2cc(C(=O)NCc3ccc(C(C)(C)C)cc3)ccn2)c1` [Example 122, N1-(2-(4-((4-tert-butylbenzyl)carbamoyl)pyridin-2-yl)-4-(piperidin-1-yl)phenyl)-N3-methyl-N3-(2-morpholinoethyl)isophthalamide], for which the IC50 in assay [1] and in assay [2] was 1 to 7.94 µM throughout.
With `CN(CCN1CCOCC1)C(=O)c1cccc(C(=O)Nc2ccc(OC3CCC3)cc2-c2cc(C(=O)N[C@H]3CCCc4ccccc43)ccn2)c1` [Example 132, N1-(2-(4-(((S)-1,2,3,4-tetrahydronaphthalen-1-yl)carbamoyl)pyridin-2-yl)-4-cyclobutoxyphenyl)-N3-methyl-N3-(2-morpholinoethyl)isophthalamide], the IC50 in assay [1] and in assay [2] was < 1 µM throughout.
In the case of `CCN(CC)c1ccc(NC(=O)c2cccc(CSCCOCCOCCOCCOCCC(=O)NC(CO)CO)c2)c(-c2cc(C(=O)N[C@H]3CCCc4ccccc43)ccn2)c1` [Example 159, (S)-2-(5-(diethylamino)-2-(3-(20-hydroxy-19-(hydroxymethyl)-17-oxo-5,8,11,14-tetraoxa-2-thia-18-azaicosyl)benzamido)phenyl)-N-(1,2,3,4-tetrahydronaphthalen-1-yl)isonicotinamide], the IC50 in assay [1] and in assay [2] was < 1 µM each time.
Take `CCN(CC)c1ccc(NC(=O)c2cccc(COCCOCCOCCOCCOC(=O)NCCOCCOCCOCCOCCOCCOCCOC)c2)c(-c2cc(C(=O)NCc3cccc(C(F)(F)F)c3)ccn2)c1` [Example 175, 1-(3-(4-(diethylamino)-2-(4-(3-(trifluoromethyl)benzylcarbamoyl)pyridin-2-yl)phenylcarbamoyl)phenyl)-2,5,8,11-tetraoxamidecan-13-yl 2,5,8,11,14,17,20-heptaoxadocosan-22-ylcarbamate]: the IC50 in assay [1] and in assay [2] was 1 to 7.94 µM throughout.
For the molecule `CCN(CC)c1ccc(NC(=O)c2cccc(COCCOCCOCCOCCOCCOCCN(CCO)CCO)c2)c(-c2cc(C(=O)NCc3cccc(C(F)(F)F)c3)ccn2)c1` [Example 178, 2-(5-(diethylamino)-2-(3-(22-hydroxy-20-(2-hydroxyethyl)-2,5,8,11,14,17-hexaoxa-20-azadocosyl)benzamido)phenyl)-N-(3-(trifluoromethyl)benzyl)isonicotinamide], the IC50 in assay [1] and in assay [2] was 1 to 7.94 µM in each case.
